Here are results for 17 compounds from patent publication USRE50083E1, “URAT1 inhibitor and use thereof” (Jiangsu Atom Bioscience and Pharmaceutical Co., Ltd., priority 2016, dated 2024).

Each structure is given as a SMILES string. Read-outs that look alike come from different tables or passages of the source.

For the experiment, the target named is T1, hURAT1 (Homo sapiens, UniProt Q96S37).
T1 sequence (Q96S37 1-553): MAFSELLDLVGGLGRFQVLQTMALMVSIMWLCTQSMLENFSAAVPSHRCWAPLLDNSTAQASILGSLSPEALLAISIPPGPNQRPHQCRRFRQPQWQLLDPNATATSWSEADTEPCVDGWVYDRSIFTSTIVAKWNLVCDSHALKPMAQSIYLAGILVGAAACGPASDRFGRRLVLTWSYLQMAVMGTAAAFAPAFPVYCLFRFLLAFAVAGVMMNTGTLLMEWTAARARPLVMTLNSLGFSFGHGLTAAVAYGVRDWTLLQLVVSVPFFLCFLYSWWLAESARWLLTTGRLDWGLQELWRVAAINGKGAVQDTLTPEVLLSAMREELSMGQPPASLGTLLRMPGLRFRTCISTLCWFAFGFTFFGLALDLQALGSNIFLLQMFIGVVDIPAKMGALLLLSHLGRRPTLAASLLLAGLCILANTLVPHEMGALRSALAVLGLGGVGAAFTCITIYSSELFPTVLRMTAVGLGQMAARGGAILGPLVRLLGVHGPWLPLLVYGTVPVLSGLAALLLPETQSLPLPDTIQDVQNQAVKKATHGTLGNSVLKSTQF
As to the kind of experiment: Inhibition assay of uric acid transport in HEK293-hURAT1 transfection cell line (14C-uric acid uptake). The settings on record: for inhibition at 0.5 µM: read-out: Inhibitory rates of uric acid transport, ±SD (%); for inhibitory effect on uric acid transport (in words): 500 nM, in comparison with the control drug benzbromarone. It is filed as cell-based. On the procedure: 1. Construction of a HEK293 Cell Line with High Expression of hURAT1:
The plasmid pCMV6-hURAT1 was transfected into HEK293 cells, and then the stable strain was obtained by the G418 (final concentration of 500 μg/mL) resistance screening, which is the high expression of hURAT1 transporter membrane protein. […] The HEK293 cells are the human embryonic kidney cells with high transfection efficiency, and are a very commonly used engineering cell line for expressing exogenous genes.
2. To a coated 24-well plate was added 200 μl of 0.1 mg/mL poly-lysine per well and the plate was left overnight. Poly-lysine was removed from wells. The wells were cleaned thoroughly with sterile water and dried for use.
3. To the above coated 24-well plate was added HEK293-hURAT1 stable cells (2×10^5 cells per well). The cells were cultured at 37° C. under 5% CO2 for 3 days.
4. […] The solution was fully mixed to give HBSS (pH value: 7.4). The buffer was stored at −20° C.
5. The HBSS buffer was warmed to 37° C. in a water bath. Taken out the 24-well plate with HEK293-hURAT1 stable cells, removed the culture medium and washed cells with HBSS, then added 160 μL of HBSS and 20 μL test compound per well. The final concentration of tested compound per well is 500 nM. The blank control well contains only 180 μL of HBSS without tested compound. The plate was placed at room temperature for 10 min.
6. To each well was added 20 μL of 50 μM ^14C-Uric acid. The 24-well plate was placed at room temperature for 20 min.
7. The solution in each well was removed and the cells were washed with the pre-cooled HBSS buffer. To each well was added 0.2 M NaOH to dissolve the cells. The solution containing cell fragments was collected and the right amount of scintillation liquid was added.
8. The formula for calculating the inhibitory rate of uric acid transport for compounds was shown as below (Table 1), the CPM value of the tested compounds was represented by CPM(tested compound) and the CPM value of the blank control was represented by CPM(blank control).

Where [1] appears, read: 500 nM compound concentration, HEK293-hURAT1 transfection cell line, 14C-uric acid, mean of three tests ± SD.
The mark [2] stands for this setting: HEK293-hURAT1 transfection cell line.

In the case of `CCc1oc2ccccc2c1C(=O)c1cc(Br)c(O)c(Br)c1` [Benzbromarone, (3,5-dibromo-4-hydroxy-'phenyl)(2-ethylbenzofuran-3-yl)-methanone, reference compound], the inhibition at 0.5 µM was 54.8 ± 5.12%.
`CCc1nc2ncccn2c1C(=O)c1cc(Br)c(O)c(Br)c1` [Compound 4, (3,5-dibromo-4-hydroxyphenyl)(2-ethylimidazo[1,2-a]-pyrimidine-3-yl)methanone]: under setting [1], the inhibition at 0.5 µM is 50 ± 5.38%.
`CCc1nc2sccn2c1C(=O)c1cc(Br)c(O)c(Br)c1` [Compound 8, (3,5-dibromo-4-hydroxyphenyl)(6-ethylimidazo[2,1-b]-thiazole-5-yl)methanone]: the inhibition at 0.5 µM under setting [1] turned out to be 55.2 ± 3.94%. In addition, the “inhibitory effect on uric acid transport (in words)” value (shortened to “inhibitory effect”) under setting [2] is listed as “very good inhibitory effects”.
Consider `CCc1nc2cnccn2c1C(=O)c1cc(Br)c(O)c(Br)c1` [Compound 12, (3,5-dibromo-4-hydroxyphenyl)(2-ethylimidazo[1,2-a]-pyrazine-3-yl)methanone], for which the inhibition at 0.5 µM under setting [1] worked out at 51.31 ± 0.16%. Further, the “inhibitory effect” value under setting [2] was “very good inhibitory effects”.
As for `CCc1nc2ccccn2c1C(O)c1cc(Br)c(O)c(C#N)c1` (stereo not shown) [Compound 20, 3-bromo-5-[(2-ethylimidazo[1,2-a]pyridine-3-yl)-hydroxymethyl]-2-hydroxybenzonitrile], the inhibition at 0.5 µM under setting [1] turned out to be 62.1 ± 1.26%. In addition, the “inhibitory effect” value under setting [2] is listed as “very good inhibitory effects”.
With `CCc1nc2ccccn2c1C(O)c1ccc(O)c(C#N)c1` (stereo not shown) [Compound 21, 5-[(2-ethylimidazo[1,2-a]pyridine-3-yl)hydroxymethyl]-2-hydroxybenzonitrile], under setting [1], the inhibition at 0.5 µM was found to be 33 ± 7.33%.
On to `CCc1nc2sccn2c1C(O)c1cc(Br)c(O)c(Br)c1` (stereo not shown) [Compound 22, 2,6-dibromo-4-[(6-ethylimidazo[2,1-b]thiazole-5-yl)-hydroxymethyl]phenol], for which the inhibition at 0.5 µM under setting [1] came to 48.2 ± 3.86%.
For `CCc1nc2cnccn2c1C(O)c1cc(Br)c(O)c(Br)c1` (stereo not shown) [Compound 23, 2,6-dibromo-4-[(2-ethylimidazo[1,2-a]pyrazine-3-yl)-hydroxymethyl]phenol], the inhibition at 0.5 µM under setting [1] was 50.2 ± 1.02%. Moreover, under setting [2], the “inhibitory effect” value is given as “very good inhibitory effects”.
With `CCc1nc2ccc(F)cn2c1C(O)c1cc(F)c(O)c(Br)c1` (stereo not shown) [Compound 28, 2-bromo-4-[(2-ethyl-6-fluoroimidazo[1,2-a]pyridine-3-yl)hydroxymethyl]-6-fluorophenol], the inhibition at 0.5 µM under setting [1] amounted to 41.2 ± 1.92%.
For `CCc1nn2ccccc2c1C(O)c1cc(Br)c(O)c(Br)c1` (stereo not shown) [Compound 35, 2,6-dibromo-4-[(2-ethylpyrazolo[1,5-a]pyridine-3-yl)-hydroxymethyl]phenol], under setting [1], the inhibition at 0.5 µM was found to be 36.3 ± 1.79%.
With `CCc1nc2ccc(Br)cn2c1C(O)c1cc(Br)c(O)c(Br)c1` (stereo not shown) [Compound 40, 2,6-dibromo-4-[(6-bromo-2-ethylimidazo[1,2-a]-pyridine-3-yl)hydroxymethyl]phenol], the inhibition at 0.5 µM under setting [1] was 51.7 ± 2.43%. Besides, the “inhibitory effect” value under setting [2] is recorded as “very good inhibitory effects”.
Turning to `CCc1nc2cc(C(F)(F)F)ccn2c1C(O)c1cc(Br)c(O)c(Br)c1` (stereo not shown) [Compound 41, 2,6-dibromo-4-{[2-ethyl-7-(trifluoromethyl)-imidazo[1,2-a]pyridine-3-yl]hydroxymethyl}phenol], under setting [1], the inhibition at 0.5 µM came out at 37.4 ± 5.52%.
Take `CCc1oc2ccccc2c1C(O)c1cc(Br)c(O)c(Br)c1` (stereo not shown) [Compound 42, 2,6-dibromo-4-[(2-ethylbenzofuran-3-yl)-hydroxymethyl]phenol]: the inhibition at 0.5 µM stood at 37.4 ± 2.36%.
Consider `CCc1nc2scnn2c1C(=O)c1cc(Br)c(O)c(Br)c1` [Compound 49, (3,5-dibromo-4-hydroxyphenyl)(6-ethylimidazo-[2,1-b][1,3,4]thiadiazole-5-yl)methanone], for which the inhibition at 0.5 µM under setting [1] came out at 31.91 ± 0.23%.
In the case of `CCc1nc2ccccn2c1C(O)c1cc(C)c(O)c(Br)c1` (stereo not shown) [Compound 54, 2-bromo-4-(2-ethylimidazo[1,2-a]pyridine-3-yl)-hydroxymethyl-6-methylphenol], under setting [1], the inhibition at 0.5 µM was found to be 42.9 ± 3.44%.
For the compound `CCc1oc2ccccc2c1C(OC)c1cc(Br)c(O)c(Br)c1` (stereo not shown) [Compound 58, 2,6-dibromo-4-[(2-ethylbenzofuran-3-yl)(methoxy)-methyl]phenol], the inhibition at 0.5 µM under setting [1] was found to be 48.7 ± 5.61%.
As to `CCc1nc2cc(OC)ccn2c1C(O)c1cc(Br)c(O)c(Br)c1` (stereo not shown) [Compound 64, 2,6-dibromo-4-{(2-ethyl-7-methoxyimidazo[1,2-a]-pyridine-3-yl)hydroxymethyl}phenol], the inhibition at 0.5 µM under setting [1] turned out to be 39.9 ± 5.34%.
